According to US20260062412A1, “NITROGEN-CONTAINING HETEROCYCLIC COMPOUND HAVING MYT1 INHIBITORY ACTIVITY” (CHUGAI SEIYAKU KABUSHIKI KAISHA, priority 2023, published 2026):

Target: MYT1 protein (Homo sapiens (Human), UniProt Q99640)
Experiment: Test for binding to ATP binding site of MYT1 (Kinase Tracer 178 / Eu-Anti-GST antibody TR-FRET)
Settings: ATP binding site of MYT1, 30 minutes at room temperature
Description: The binding capacity of each compound to the ATP binding site of MYT1 Kinase protein was evaluated. 5× Kinase Buffer A (manufactured by Thermo Fisher Scientific Inc., PV3189) was diluted to 5 times with Milli-Q water, thereby preparing 1× Kinase Buffer. Using 1× Kinase Buffer, MYT1 protein (manufactured by Carna Biosciences, Inc.) was diluted to a concentration of 0.005 μM and Eu-Anti-GST Antibody was diluted to a concentration of 1 μM. […] To a 96 well-plate, 2.5 μL of a compound diluted with DMSO was added. […] The mixture was well mixed and then allowed to stand at room temperature for 30 minutes. Thereafter, fluorescence wavelengths of 665 nm and 615 nm generated by irradiation with excitation light of 340 nm were detected using Envision (manufactured by PerkinElmer). The proportion of Tracer bound to MYT1 protein was calculated for every condition by dividing the intensity at the fluorescence wavelength of 665 nm by the intensity at the fluorescence wavelength of 615 nm.

Sequence of MYT1 protein (Q99640 whole entry): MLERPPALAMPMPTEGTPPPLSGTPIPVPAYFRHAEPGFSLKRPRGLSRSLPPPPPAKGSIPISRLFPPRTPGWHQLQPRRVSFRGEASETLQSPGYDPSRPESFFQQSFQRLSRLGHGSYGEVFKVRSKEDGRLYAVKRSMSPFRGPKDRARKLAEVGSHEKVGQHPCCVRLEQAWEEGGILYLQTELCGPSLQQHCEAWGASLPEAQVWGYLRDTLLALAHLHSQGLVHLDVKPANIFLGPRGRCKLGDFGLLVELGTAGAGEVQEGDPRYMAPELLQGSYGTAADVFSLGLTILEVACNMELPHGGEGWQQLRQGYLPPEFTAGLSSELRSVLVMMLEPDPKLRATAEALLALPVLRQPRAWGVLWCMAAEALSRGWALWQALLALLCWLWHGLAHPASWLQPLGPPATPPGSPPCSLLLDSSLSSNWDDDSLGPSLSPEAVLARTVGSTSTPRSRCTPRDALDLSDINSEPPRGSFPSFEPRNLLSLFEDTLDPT

| Compound | IC50 |
| --- | --- |
| Cc1cc2c(-c3ccc(F)c4[nH]ncc34)c(N)c(=O)[nH]c2c2cc(Cl)ccc12 [Compound B12, 3-Amino-9-chloro-4-(7-fluoro-1H-indazol-4-yl)-6-methyl-1H-benzo[h]quinolin-2-one] | 20 nM |
| Nc1c(-c2ccc(F)c3[nH]ncc23)c2cc(I)c3cc(Cl)ccc3c2[nH]c1=O [Compound B13, 3-Amino-8-chloro-4-(7-fluoro-1H-indazol-4-yl)-6-iodo-1H-benzo[h]quinolin-2-one] | 85 nM |
| Nc1c(-c2ccc(F)c3[nH]ncc23)c2cc(C3CC3)c3cc(Cl)ccc3c2[nH]c1=O [Compound B14, 3-Amino-8-chloro-6-cyclopropyl-4-(7-fluoro-1H-indazol-4-yl)-1H-benzo[h]quinolin-2-one] | 18 nM |
| Cc1cc2c(-c3ccc(F)c4[nH]ncc34)c(N)c(=O)[nH]c2c2ccc(Cl)cc12 [Compound B15, 3-Amino-8-chloro-4-(7-fluoro-1H-indazol-4-yl)-6-methyl-1H-benzo[h]quinolin-2-one] | 8.6 nM |
| Nc1c(-c2ccc(F)c3[nH]ncc23)c2cc(Br)c3c(Cl)cccc3c2[nH]c1=O [Compound B16, 3-Amino-6-bromo-7-chloro-4-(7-fluoro-1H-indazol-4-yl)-1H-benzo[h]quinolin-2-one] | 46 nM |
| Nc1c(-c2ccc(F)c3[nH]ncc23)c2cc(C3CC3)c3c(Cl)cccc3c2[nH]c1=O [Compound B17, 3-Amino-7-chloro-6-cyclopropyl-4-(7-fluoro-1H-indazol-4-yl)-1H-benzo[h]quinolin-2-one] | 15 nM |
| Nc1c(-c2ccc(F)c3[nH]ncc23)c2ccc3c(Cl)cccc3c2[nH]c1=O [Compound B18, 3-Amino-7-chloro-4-(7-fluoro-1H-indazol-4-yl)-1H-benzo[h]quinolin-2-one] | 23 nM |
| Cc1cc2c(-c3ccc(F)c4[nH]ncc34)c(N)c(=O)[nH]c2c2cccc(Cl)c12 [Compound B19, 3-Amino-7-chloro-4-(7-fluoro-1H-indazol-4-yl)-6-methyl-1H-benzo[h]quinolin-2-one] | 22 nM |
| Nc1c(-c2ccc(F)c3[nH]ncc23)c2cc(C3CC3)c3cccc(Cl)c3c2[nH]c1=O [Compound B20, 3-Amino-10-chloro-6-cyclopropyl-4-(7-fluoro-1H-indazol-4-yl)-1H-benzo[h]quinolin-2-one] | 42 nM |
| Nc1c(-c2ccc(F)c3[nH]ncc23)c2cc(Br)c3ccccc3c2[nH]c1=O [Compound B21, 3-Amino-6-bromo-4-(7-fluoro-1H-indazol-4-yl)-1H-benzo[h]quinolin-2-one] | 20 nM |
| Nc1c(-c2ccc(F)c3[nH]ncc23)c2cc(C3CCCC3)c3ccccc3c2[nH]c1=O [Compound B25, 3-Amino-6-cyclopentyl-4-(7-fluoro-1H-indazol-4-yl)-1H-benzo[h]quinolin-2-one] | 24 nM |
| CC#Cc1cc2c(-c3ccc(F)c4[nH]ncc34)c(N)c(=O)[nH]c2c2ccccc12 [Compound B28, 3-Amino-4-(7-fluoro-1H-indazol-4-yl)-6-prop-1-inyl-1H-benzo[h]quinolin-2-one] | 22 nM |
| Cn1cc(-c2cc3c(-c4ccc(F)c5[nH]ncc45)c(N)c(=O)[nH]c3c3ccccc23)cn1 [Compound B29, 3-Amino-4-(7-fluoro-1H-indazol-4-yl)-6-(1-methylpyrazole-4-yl)-1H-benzo[h]quinolin-2-one] | 9.2 nM |
| C=Cc1cc2c(-c3ccc(F)c4[nH]ncc34)c(N)c(=O)[nH]c2c2ccccc12 [Compound B30, 3-Amino-6-ethenyl-4-(7-fluoro-1H-indazol-4-yl)-1H-benzo[h]quinolin-2-one] | 15 nM |
| Cn1c(=O)c(N)c(-c2ccc(F)c3[nH]ncc23)c2cc(Br)c3ccccc3c21 [Compound B33, 3-Amino-6-bromo-4-(7-fluoro-1H-indazol-4-yl)-1-methylbenzo[h]quinolin-2-one] | 2600 nM |
| Nc1c(-c2ccc(Cl)c3[nH]ncc23)c2cc(Br)c3ccccc3c2[nH]c1=O [Compound B36, 3-Amino-6-bromo-4-(7-chloro-1H-indazol-4-yl)-1H-benzo[h]quinolin-2-one] | 14 nM |
| CCc1cc2c(-c3ccc(Cl)c4[nH]ncc34)c(N)c(=O)[nH]c2c2ccccc12 [Compound B38, 3-Amino-4-(7-chloro-1H-indazol-4-yl)-6-ethyl-1H-benzo[h]quinolin-2-one] | 4.6 nM |
| Nc1c(-c2ccc(Cl)c3[nH]ncc23)c2cc(C3CCC3)c3ccccc3c2[nH]c1=O [Compound B39, 3-Amino-4-(7-chloro-1H-indazol-4-yl)-6-cyclobutyl-1H-benzo[h]quinolin-2-one] | 10 nM |
| Nc1c(-c2ccc(Cl)c3[nH]ncc23)c2cc(C3CCCC3)c3ccccc3c2[nH]c1=O [Compound B40, 3-Amino-4-(7-chloro-1H-indazol-4-yl)-6-cyclopentyl-1H-benzo[h]quinolin-2-one] | 13 nM |
| N#Cc1cc2c(-c3ccc(Cl)c4[nH]ncc34)c(N)c(=O)[nH]c2c2ccccc12 [Compound B41, 3-Amino-4-(7-chloro-1H-indazol-4-yl)-2-oxo-1H-benzo[h]quinoline-6-carbonitrile] | 14 nM |
| N#Cc1cc2c(-c3ccc(C#N)c4[nH]ncc34)c(N)c(=O)[nH]c2c2ccccc12 [Compound B42, 3-Amino-4-(7-cyano-1H-indazol-4-yl)-2-oxo-1H-benzo[h]quinoline-6-carbonitrile] | 250 nM |
| Cc1cc2c(-c3ccc(Cl)c4[nH]ncc34)c(N)c(=O)[nH]c2c2ccccc12 [Compound B43, 3-Amino-4-(7-chloro-1H-indazol-4-yl)-6-methyl-1H-benzo[h]quinolin-2-one] | 15 nM |
| Nc1c(-c2ccc(Cl)c3[nH]ncc23)c2ccc3ccccc3c2[nH]c1=O [Compound B44, 3-Amino-4-(7-chloro-1H-indazol-4-yl)-1H-benzo[h]quinolin-2-one] | 14 nM |
| Nc1c(-c2ccc(Cl)c3[nH]ncc23)c2cc(Cl)c3ccccc3c2[nH]c1=O [Compound B45, 3-Amino-6-chloro-4-(7-chloro-1H-indazol-4-yl)-1H-benzo[h]quinolin-2-one] | 33 nM |
| Cn1ncc2c(-c3c(N)c(=O)[nH]c4c3cc(Br)c3ncccc34)ccc(F)c21 [Compound C2, 3-Amino-6-bromo-4-(7-fluoro-1-methylindazol-4-yl)-1H-1,7-phenanthrolin-2-one] | 1100 nM |
| Nc1c(-c2ccc(F)c3[nH]ncc23)c2cc(O)c3ncccc3c2[nH]c1=O [Compound C3, 3-Amino-4-(7-fluoro-1H-indazol-4-yl)-6-hydroxy-1H-1,7-phenanthrolin-2-one] | 3.6 nM |
| Nc1c(-c2ccc(F)c3[nH]ncc23)c2cc(O[C@@H]3CCOC3)c3ncccc3c2[nH]c1=O [Compound C5, 3-Amino-4-(7-fluoro-1H-indazol-4-yl)-6-[(3R)-oxolan-3-yl]oxy-1H-1,7-phenanthrolin-2-one] | 1.4 nM |
| Nc1c(-c2ccc(F)c3[nH]ncc23)c2cc(OC3CCCC3)c3ncccc3c2[nH]c1=O [Compound C6, 3-Amino-6-cyclopentyloxy-4-(7-fluoro-1H-indazol-4-yl)-1H-1,7-phenanthrolin-2-one] | 1 nM |
| Nc1c(-c2ccc(F)c3[nH]ncc23)c2cc(OC3CCOCC3)c3ncccc3c2[nH]c1=O [Compound C7, 3-Amino-4-(7-fluoro-1H-indazol-4-yl)-6-(oxan-4-yloxy)-1H-1,7-phenanthrolin-2-one] | 1.2 nM |
